Test system: HT-1080 cells
Experiment: RSL3-induced HT-1080 cells ferroptosis assay (10% FBS)
Format: cell-based

## 5-(dimethylamino)-N-((8-(trifluoromethyl)-10H-phenoxazin-3-yl)methyl)pentanamide [Compound 57]
  Bioactivity (RSL3-induced HT-1080 cells ferroptosis assay (10% FBS)): 1 to 100 nM
